This passage reports EC50 results from US20220281886A1, “NATRIURETIC PEPTIDE RECEPTOR A AGONISTS USEFUL FOR THE TREATMENT OF CARDIOMETABOLIC DISEASES, KIDNEY DISEASE AND DIABETES” (Merck Sharp & Dohme Corp., priority 2019, published 2022).

The target of the test is T1, hNPRA (Homo sapiens, UniProt P16066).
T1 construct: expressed in transfected cells
T1 sequence (P16066 33-1061): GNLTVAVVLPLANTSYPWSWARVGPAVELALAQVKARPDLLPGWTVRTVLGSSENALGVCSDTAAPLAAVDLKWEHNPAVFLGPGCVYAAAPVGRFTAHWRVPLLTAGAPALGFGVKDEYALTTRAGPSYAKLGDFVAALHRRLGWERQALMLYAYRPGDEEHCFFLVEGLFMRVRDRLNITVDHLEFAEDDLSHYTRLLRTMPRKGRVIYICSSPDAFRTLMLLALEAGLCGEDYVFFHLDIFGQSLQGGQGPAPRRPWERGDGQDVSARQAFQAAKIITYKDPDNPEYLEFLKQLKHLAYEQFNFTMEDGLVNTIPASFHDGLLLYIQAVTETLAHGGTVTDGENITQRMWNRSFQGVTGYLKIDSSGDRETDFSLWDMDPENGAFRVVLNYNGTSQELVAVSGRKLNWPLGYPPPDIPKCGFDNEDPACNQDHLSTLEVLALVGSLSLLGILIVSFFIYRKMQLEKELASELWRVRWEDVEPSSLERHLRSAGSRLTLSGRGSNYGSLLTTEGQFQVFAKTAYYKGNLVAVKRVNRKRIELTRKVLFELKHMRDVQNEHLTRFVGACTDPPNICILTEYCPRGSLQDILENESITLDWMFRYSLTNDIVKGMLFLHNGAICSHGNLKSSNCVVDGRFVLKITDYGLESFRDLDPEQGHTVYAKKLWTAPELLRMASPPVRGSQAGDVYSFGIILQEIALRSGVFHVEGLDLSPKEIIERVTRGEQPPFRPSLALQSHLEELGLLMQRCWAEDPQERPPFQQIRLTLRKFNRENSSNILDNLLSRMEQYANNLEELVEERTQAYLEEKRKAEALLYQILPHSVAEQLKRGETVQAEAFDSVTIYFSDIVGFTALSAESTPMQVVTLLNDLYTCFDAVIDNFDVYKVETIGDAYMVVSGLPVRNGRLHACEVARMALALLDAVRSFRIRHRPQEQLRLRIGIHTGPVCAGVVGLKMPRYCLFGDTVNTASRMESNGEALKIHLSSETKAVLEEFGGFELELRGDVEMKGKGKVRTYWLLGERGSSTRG
The experiment in a line: NPRA Functional Cell Assay (cGMP HTRF). The format is cell-based. The following applies: Human NPRA HEK JumpIn stable cells; cGMP by HTRF after 1 hour at 37° C.; 10-point dose response. The method, boiled down: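 HEK JumpIn cells stably expressing human, rat or dog NPRA incubated 1 hour at 37° C with compound (10-point titration) in Opti-MEM buffer with 100 uM IBMX and 100 uM RO20. cGMP measured by HTRF against an on-plate calibration curve; EC50 from 4-parameter fit, positive control 10 nM rat-ANP (rat) or 50 nM h-ANP (human, dog).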
A general note: Time-resolved FRET reads energy transfer from a long-lived donor to a nearby acceptor.
As usually defined, the EC50 is the concentration that produces a half-maximal response. A lower EC50 goes with an effect from little substance. The compound `O=C(N[C@H](CCN1CCC(O)CC1)c1ccc(N2CCOC2=O)cc1)c1ccc2nc3c(cc2c1)C[C@@H](C1(C(F)(F)F)CC1)CC3` [Example 4, (7S)-N-{(1R)-3-(4-hydroxypiperidin-1-yl)-1-[4-(2-oxo-1,3-oxazolidin-3-yl)phenyl]propyl}-7-[1-(trifluoromethyl)cyclopropyl]-5,6,7,8-tetrahydroacridine-2-carboxamide] showed a concentration for a half-maximal effect (EC50) of 2220 nM.

As for `C[Si](C)(C)[C@H]1CCc2nc3ccc(C(=O)N[C@H](CCN4CCC(O)CC4)c4ccc(N5CCOC5=O)cc4)cc3cc2C1` [Example 5, (7S)-N-{(1R)-3-(4-hydroxypiperidin-1-yl)-1-[4-(2-oxo-1,3-oxazolidin-3-yl)phenyl]propyl}-7-(trimethylsilyl)-5,6,7,8-tetrahydroacridine-2-carboxamide], the concentration for a half-maximal effect (EC50) stood at 1980 nM.

Take `CC(C)[C@]1(F)CCc2nc3c(F)cc(C(=O)N[C@H](CCN4CCC(O)CC4)c4ccc(N5CCOC5=O)cc4)cc3cc2C1` [Example 6, (7S)-4,7-difluoro-N-{(1R)-3-(4-hydroxypiperidin-1-yl)-1-[4-(2-oxo-1,3-oxazolidin-3-yl)phenyl]propyl}-7-(1-methylethyl)-5,6,7,8-tetrahydroacridine-2-carboxamide]: the EC50 is 114 nM.

`CC(C)[C@]1(F)CCc2nc3c(F)c(F)c(C(=O)N[C@H](CCN4CCC(O)CC4)c4ccc(N5CCOC5=O)cc4)cc3cc2C1` [Example 7, (7S)-3,4,7-trifluoro-N-{(1R)-3-(4-hydroxypiperidin-1-yl)-1-[4-(2-oxo-1,3-oxazolidin-3-yl)phenyl]propyl}-7-(1-methylethyl)-5,6,7,8-tetrahydroacridine-2-carboxamide] came in with an EC50 of 251 nM.

`Cc1cc(C(=O)N[C@H](CCN2CCC(O)CC2)c2ccc(N3CCOC3=O)cc2)cc2cc3c(nc12)CCC(C(C)(C)C)C3` (stereo partly drawn) [Example 9, 7-(tert-butyl)-N-((R)-3-(4-hydroxypiperidin-1-yl)-1-(4-(2-oxooxazolidin-3-yl)phenyl)propyl)-4-methyl-5,6,7,8-tetrahydroacridine-2-carboxamide+]: a half-maximal response (EC50) required 2550 nM.

For `CC(C)[C@]1(F)CCc2nc3c(F)cc(C(=O)N[C@H](CCN4CCC(O)CC4)c4ccc(-c5ccnnc5)nc4)cc3cc2C1` [Example 10, (7S)-4,7-difluoro-N-[(1R)-3-(4-hydroxypiperidin-1-yl)-1-(6-pyridazin-4-ylpyridin-3-yl)propyl]-7-(1-methylethyl)-5,6,7,8-tetrahydroacridine-2-carboxamide], the EC50 stood at 112 nM.

On to `CC(C)[C@]1(F)CCc2nc3c(F)cc(C(=O)N[C@H](CCN4CCC(O)CC4(C)C)c4ccc(-c5ccnnc5)nc4)cc3cc2C1` (stereo partly drawn) [Example 11, (7S)-4,7-difluoro-N-[(1R)-3-(4-hydroxy-2,2-dimethylpiperidin-1-yl)-1-(6-pyridazin-4-ylpyridin-3-yl)propyl]-7-(1-methylethyl)-5,6,7,8-tetrahydroacridine-2-carboxamide], for which the EC50 stood at 219 nM.

Regarding `CC(C)[C@]1(F)CCc2nc3c(F)cc(C(=O)N[C@H](CCN4CCC(C)(O)CC4)c4ccc(-c5ccnnc5)nc4)cc3cc2C1` [Example 12, (7S)-4,7-difluoro-N-[(1R)-3-(4-hydroxy-4-methylpiperidin-1-yl)-1-(6-pyridazin-4-ylpyridin-3-yl)propyl]-7-(1-methylethyl)-5,6,7,8-tetrahydroacridine-2-carboxamide], the EC50 turned out to be 205 nM.

In turn, `CC(C)[C@]1(F)CCc2nc3c(F)cc(C(=O)N[C@H](CCN4CCC(O)(C(=O)O)CC4)c4ccc(-c5ccnnc5)nc4)cc3cc2C1` [Example 13, 1-[(3R)-3-({[(7S)-4,7-difluoro-7-(1-methylethyl)-5,6,7,8-tetrahydroacridin-2-yl]carbonyl}amino)-3-(6-pyridazin-4-ylpyridin-3-yl)propyl]-4-hydroxypiperidine-4-carboxylic acid] showed an EC50 of 855 nM.

For `CC(C)[C@]1(F)CCc2nc3c(F)cc(C(=O)N[C@H](CCN4CC5CC(C4)C5(O)C(F)(F)F)c4ccc(-c5ccnnc5)nc4)cc3cc2C1` (stereo partly drawn) [Example 14, (7S)-4,7-difluoro-N-[(1R)-3-[6-hydroxy-6-(trifluoromethyl)-3-azabicyclo[3.1.1]hept-3-yl]-1-(6-pyridazin-4-ylpyridin-3-yl)propyl]-7-(1-methylethyl)-5,6,7,8-tetrahydroacridine-2-carboxamide], the EC50 came out at 2090 nM.

With `CC(C)[C@]1(F)CCc2nc3c(F)cc(C(=O)N[C@H](CCN4CCC5(O)CCCCC5C4)c4ccc(-c5ccnnc5)nc4)cc3cc2C1` (stereo partly drawn) [Example 15, (7S)-4,7-difluoro-N-[(1R)-3-(4a-hydroxyoctahydroisoquinolin-2(1H)-yl)-1-(6-pyridazin-4-ylpyridin-3-yl)propyl]-7-(1-methylethyl)-5,6,7,8-tetrahydroacridine-2-carboxamide], the EC50 was determined as 257 nM.

`CC(C)[C@]1(F)CCc2nc3c(F)cc(C(=O)N[C@H](CCN4CCC5(CCCO5)CC4)c4ccc(-c5ccnnc5)nc4)cc3cc2C1` [Example 16, (7S)-4,7-difluoro-7-(1-methylethyl)-N-[(1R)-3-(1-oxa-8-azaspiro[4.5]dec-8-yl)-1-(6-pyridazin-4-ylpyridin-3-yl)propyl]-5,6,7,8-tetrahydroacridine-2-carboxamide] showed an EC50 of 343 nM.

As to `CC(C)[C@]1(F)CCc2nc3c(F)cc(C(=O)N[C@H](CCN4CCC5(CCO5)CC4)c4ccc(-c5ccnnc5)nc4)cc3cc2C1` [Example 17, (7S)-4,7-difluoro-7-(1-methylethyl)-N-[(1R)-3-(1-oxa-7-azaspiro[3.5]non-7-yl)-1-(6-pyridazin-4-ylpyridin-3-yl)propyl]-5,6,7,8-tetrahydroacridine-2-carboxamide], the response was half-maximal at 217 nM (EC50).

Take `COC1CCN(CC[C@@H](NC(=O)c2cc(F)c3nc4c(cc3c2)C[C@](F)(C(C)C)CC4)c2ccc(-c3ccnnc3)nc2)CC1` [Example 18, (7S)-4,7-difluoro-N-[(1R)-3-(4-methoxypiperidin-1-yl)-1-(6-pyridazin-4-ylpyridin-3-yl)propyl]-7-(1-methylethyl)-5,6,7,8-tetrahydroacridine-2-carboxamide]: the midpoint of the response, the EC50, lay at 147 nM.

On to `CC(C)[C@]1(F)CCc2nc3c(F)cc(C(=O)N[C@H](CCN4CCC(O)(CO)CC4)c4ccc(-c5ccnnc5)nc4)cc3cc2C1` [Example 19, (7S)-4,7-difluoro-N-[(1R)-3-[4-hydroxy-4-(hydroxymethyl)piperidin-1-yl]-1-(6-pyridazin-4-ylpyridin-3-yl)propyl]-7-(1-methylethyl)-5,6,7,8-tetrahydroacridine-2-carboxamide], for which the EC50 was 203 nM.

For `CC(C)[C@]1(F)CCc2nc3c(F)cc(C(=O)N[C@H](CCN4CCC(O)CC4)c4cnc(-c5ccnnc5)c(F)c4)cc3cc2C1` [Example 20, (7S)-4,7-difluoro-N-[(1R)-1-(5-fluoro-6-pyridazin-4-ylpyridin-3-yl)-3-(4-hydroxypiperidin-1-yl)propyl]-7-(1-methylethyl)-5,6,7,8-tetrahydroacridine-2-carboxamide], the response was half-maximal at 125 nM (EC50).

Turning to `CN1CC(NC(=O)c2cccc([C@@H](CCN3CCC[C@H]3CO)NC(=O)c3ccc4nc5c(cc4c3)C[C@@H](C3(C)CC3)CC5)c2)C1` [Example 21, (S)-N-((R)-3-((S)-2-(hydroxymethyl)pyrrolidin-1-yl)-1-(3-((1-methylazetidin-3-yl)carbamoyl)phenyl)propyl)-7-(1-methylcyclopropyl)-5,6,7,8-tetrahydroacridine-2-carboxamide], it took 158 nM to reach a half-maximal effect (EC50).
